What was measured:
[1] = target: hPARG (C-terminal His6-tag) (Homo sapiens (Human), UniProt Q86W56); test: PARG Enzymatic Activity Assay (HTRF); type: biochemical; conditions: hPARG 65 pM final, biotinylated-NAD ribosylated PARP1 8 nM final
In short: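 E. coli-expressed enzyme (65 pM final) preincubated 60 min RT with compounds (10-point 4-fold dilution, duplicate) in 50 mM Tris pH 7.4, 3 mM EDTA, 1 mM DTT, 50 mM KCl, 0.01% Tween 20. Biotinylated-NAD ribosylated PARP1 substrate (8 nM final) reacted 10 min RT; Eu-streptavidin/anti-6HIS-XL665 HTRF read 665/620 nm after 60 min. IC50 from 4-parameter Hill fit.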

[2] = test system: Kuramochi cell line; test: Cell Viability Assay (Cell Titer-Glo, 7 days); type: cell-based; conditions: 168 h, Kuramochi cells, 7 days incubation, read-out: PARG Cell viability (IC50)
In short: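 Kuramochi cells in RPMI with 10% FBS, seeded at 400 cells/well, were treated with a 9-point 3-fold dilution series in duplicate for 7 days at 37 °C, 5% CO2. Viability by CellTiter-Glo luminescence, normalised to DMSO and medium-only controls; IC50 from 4-parameter Hill fit.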

Chain of hPARG (C-terminal His6-tag) (Q86W56 whole entry): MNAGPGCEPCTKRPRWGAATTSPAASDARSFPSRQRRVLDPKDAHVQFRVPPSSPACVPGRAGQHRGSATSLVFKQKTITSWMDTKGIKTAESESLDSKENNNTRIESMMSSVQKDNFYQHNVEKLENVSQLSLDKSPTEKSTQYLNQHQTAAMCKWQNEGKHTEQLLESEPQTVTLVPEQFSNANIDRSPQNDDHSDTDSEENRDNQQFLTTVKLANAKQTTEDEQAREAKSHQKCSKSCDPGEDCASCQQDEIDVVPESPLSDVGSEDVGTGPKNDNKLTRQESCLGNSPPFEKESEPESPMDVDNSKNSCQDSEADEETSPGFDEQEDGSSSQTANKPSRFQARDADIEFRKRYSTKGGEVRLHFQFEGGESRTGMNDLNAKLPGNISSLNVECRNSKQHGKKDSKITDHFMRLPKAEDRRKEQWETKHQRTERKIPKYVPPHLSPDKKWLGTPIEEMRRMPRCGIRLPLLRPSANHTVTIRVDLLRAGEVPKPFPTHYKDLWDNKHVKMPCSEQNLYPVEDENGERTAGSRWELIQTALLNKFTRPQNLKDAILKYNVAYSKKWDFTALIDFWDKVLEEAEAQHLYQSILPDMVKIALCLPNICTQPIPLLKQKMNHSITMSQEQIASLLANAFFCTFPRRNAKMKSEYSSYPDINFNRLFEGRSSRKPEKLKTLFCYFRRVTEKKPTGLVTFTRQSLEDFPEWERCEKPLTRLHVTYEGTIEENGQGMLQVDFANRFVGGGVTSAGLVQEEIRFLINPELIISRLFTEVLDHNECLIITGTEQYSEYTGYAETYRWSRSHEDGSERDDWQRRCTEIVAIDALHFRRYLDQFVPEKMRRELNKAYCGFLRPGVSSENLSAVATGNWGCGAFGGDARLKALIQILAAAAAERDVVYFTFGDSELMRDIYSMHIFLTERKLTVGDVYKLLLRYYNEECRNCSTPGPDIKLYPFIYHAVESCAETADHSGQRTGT

| SMILES | IC50 [1] | IC50 [2] |
| --- | --- | --- |
| C[C@@H]1CO[C@@H](C)CN1c1ncnc2c1c1ccc(S(=O)(=O)NC3(C#N)CC3)cc1n2-c1nnc(C(F)F)s1 [Example 200, N-(1-Cyanocyclopropyl)-9-(5-(difluoromethyl)-1,3,4-thiadiazol-2-yl)-4-((2S,5R)-2,5-dimethylmorpholino)-9H-pyrimido[4,5-b]indole-7-sulfonamide] | < 100 nM | < 100 nM |
| C[C@H]1CN(c2ncnc3c2c2cc(F)c(S(=O)(=O)NC4(C#N)CC4)cc2n3-c2nnc(C(F)F)s2)CCN1C(=O)N(C)C [Example 46, (S)-4-(7-(N-(1-Cyanocyclopropyl)sulfamoyl)-9-(5-(difluoromethyl)-1,3,4-thiadiazol-2-yl)-6-fluoro-9H-pyrimido[4,5-b]indol-4-yl)-N,N,2-trimethylpiperazine-1-carboxamide] | < 100 nM | < 100 nM |
| N#CC1(NS(=O)(=O)c2ccc3c4c(N5CCC(N6CCC6)[C@@H](F)C5)ncnc4n(-c4nnc(C(F)F)s4)c3c2)CC1 (stereo partly drawn) [Example 208, 4-((3S)-4-(Azetidin-1-yl)-3-fluoropiperidin-1-yl)-N-(1-cyanocyclopropyl)-9-(5-(difluoromethyl)-1,3,4-thiadiazol-2-yl)-9H-pyrimido[4,5-b]indole-7-sulfonamide] | < 100 nM | < 100 nM |
| N#CC1(NS(=O)(=O)c2ccc3c4c(N5CCN(C(=O)N6CCC6)CC5)ncnc4n(-c4nnc(C(F)F)s4)c3c2)CC1 [Example 63, 4-(4-(Azetidine-1-carbonyl)piperazin-1-yl)-N-(1-cyanocyclopropyl)-9-(5-(difluoromethyl)-1,3,4-thiadiazol-2-yl)-9H-pyrimido[4,5-b]indole-7-sulfonamide] | < 100 nM | < 100 nM |
| CON(C)C(=O)N1CCC(c2ncnc3c2c2ccc(S(=O)(=O)NC4(C#N)CC4)cc2n3-c2nnc(C(F)F)s2)CC1 [Example 145, 4-(7-(N-(1-Cyanocyclopropyl)sulfamoyl)-9-(5-(difluoromethyl)-1,3,4-thiadiazol-2-yl)-9H-pyrimido[4,5-b]indol-4-yl)-N-methoxy-N-methylpiperidine-1-carboxamide] | < 100 nM | < 100 nM |
| N#CC1(NS(=O)(=O)c2ccc3c4c(N5CCN6CCOC[C@@H]6C5)ncnc4n(-c4nnc(C(F)F)s4)c3c2)CC1 [Example 162, (S)-N-(1-cyanocyclopropyl)-9-(5-(difluoromethyl)-1,3,4-thiadiazol-2-yl)-4-(hexahydropyrazino[2,1-c][1,4]oxazin-8(1H)-yl)-9H-pyrimido[4,5-b]indole-7-sulfonamide] | < 100 nM | < 100 nM |
| CN(C)[C@@H]1CCN(C(=O)N2CCC(c3ncnc4c3c3ccc(S(=O)(=O)NC5(C#N)CC5)cc3n4-c3nnc(C(F)F)s3)CC2)C1 [Example 137, (R)-N-(1-Cyanocyclo-propyl)-9-(5-(difluoromethyl)-1,3,4-thiadiazol-2-yl)-4-(1-(3-(dimethylamino)pyrrolidine-1-carbonyl)piperidin-4-yl)-9H-pyrimido[4,5-b] indole-7-sulfonamide] | < 100 nM | 100 to 1000 nM |
| CN(C)C(=O)N1CC=C(c2ncnc3c2c2cc(F)c(S(=O)(=O)NC4(C)CC4)cc2n3-c2nnc(C(F)F)s2)CC1 [Example 81, 4-(9-(5-(Difluoromethyl)-1,3,4-thiadiazol-2-yl)-6-fluoro-7-(N-(1-methylcyclopropyl)sulfamoyl)-9H-pyrimido[4,5-b]indol-4-yl)-N,N-dimethyl-3,6-dihydropyridine-1(2H)-carboxamide] | < 100 nM | < 100 nM |
| CC(O)CN(C)C(=O)N1CCC(c2ncnc3c2c2ccc(S(=O)(=O)NC4(C#N)CC4)cc2n3-c2nnc(C(F)F)s2)CC1 (centres unmarked) [Example 142, 4-(7-(N-(1-cyanocyclo-propyl)sulfamoyl)-9-(5-(difluoromethyl)-1,3,4-thiadiazol-2-yl)-9H-pyrimido[4,5-b]indol-4-yl)-N-(2-hydroxypropyl)-N-methylpiperidine-1-carboxamide] | < 100 nM | < 100 nM |
| C[C@H]1CN(c2ncnc3c2c2ccc(S(=O)(=O)NC4(C#N)CC4)cc2n3-c2nnc(C(F)F)s2)CCN1CC1CC1 [Example 164, (S)-N-(1-cyanocyclopropyl)-4-(4-(cyclopropylmethyl)-3-methylpiperazin-1-yl)-9-(5-(difluoromethyl)-1,3,4-thiadiazol-2-yl)-9H-pyrimido[4,5-b]indole-7-sulfonamide] | < 100 nM | < 100 nM |
| CC(C)(C)[S+]([O-])N1CCN(c2ncnc3c2c2ccc(S(=O)(=O)NC4(C#N)CC4)cc2n3-c2nnc(C(F)F)s2)CC1 (centres unmarked) [Example 70, 4-(4-(Tert-butylsulfinyl)piperazin-1-yl)-N-(1-cyanocyclopropyl)-9-(5-(difluoromethyl)-1,3,4-thiadiazol-2-yl)-9H-pyrimido[4,5-b]indole-7-sulfonamide] | < 100 nM | < 100 nM |
| N#CC1(NS(=O)(=O)c2ccc3c4c(N5CCN(c6ncccn6)CC5)ncnc4n(-c4nnc(C(F)F)s4)c3c2)CC1 [Example 18, N-(1-Cyanocyclopropyl)-9-(5-(difluoromethyl)-1,3,4-thiadiazol-2-yl)-4-(4-(pyrimidin-2-yl)piperazin-1-yl)-9H-pyrimido[4,5-b]indole-7-sulfonamide] | 100 to 1000 nM | 100 to 1000 nM |
| N#CC1(NS(=O)(=O)c2ccc3c4c(C5CCN(C(=O)N6CC[C@H](O)C6)CC5)ncnc4n(-c4nnc(C(F)F)s4)c3c2)CC1 [Example 130, (S)—N-(1-Cyanocyclopropyl)-9-(5-(difluoromethyl)-1,3,4-thiadiazol-2-yl)-4-(1-(3-hydroxypyrrolidine-1-carbonyl)piperidin-4-yl)-9H-pyrimido[4,5-b]indole-7-sulfonamide] | < 100 nM | 100 to 1000 nM |
| CCC(=O)N1CCC(c2ncnc3c2c2ccc(S(=O)(=O)NC4(C#N)CC4)cc2n3-c2nnc(C(F)F)s2)CC1 [Example 120, N-(1-cyanocyclopropyl)-9-(5-(difluoromethyl)-1,3,4-thiadiazol-2-yl)-4-(1-propionylpiperidin-4-yl)-9H-pyrimido[4,5-b]indole-7-sulfonamide] | < 100 nM | < 100 nM |
| CC(C)C(=O)N1CC=C(c2ccnc3c2c2ccc(S(=O)(=O)NC4(C#N)CC4)cc2n3-c2nnc(C(F)F)s2)CC1 [Example 196, N-(1-Cyanocyclopropyl)-9-(5-(difluoromethyl)-1,3,4-thiadiazol-2-yl)-4-(1-isobutyryl-1,2,3,6-tetrahydropyridin-4-yl)-9H-pyrido[2,3-b]indole-7-sulfonamide] | < 100 nM | 100 to 1000 nM |

Second part, led by results:

| IC50 [1] | SMILES | IC50 [2] |
| --- | --- | --- |
| < 100 nM | C[C@H]1CN(c2ncnc3c2c2ccc(S(=O)(=O)NC4(C#N)CC4)cc2n3-c2nnc(C(F)F)s2)CCO1 [Example 50, (S)-N-(1-Cyanocyclopropyl)-9-(5-(difluoromethyl)-1,3,4-thiadiazol-2-yl)-4-(2-methylmorpholino)-9H-pyrimido[4,5-b]indole-7-sulfonamide] | < 100 nM |
| < 100 nM | N#CC1(NS(=O)(=O)c2ccc3c4c(N5CC6CCC(C5)O6)ncnc4n(-c4nnc(C(F)F)s4)c3c2)CC1 [Example 201, 4-(8-Oxa-3-azabicyclo[3.2.1]octan-3-yl)-N-(1-cyanocyclopropyl)-9-(5-(difluoromethyl)-1,3,4-thiadiazol-2-yl)-9H-pyrimido[4,5-b]indole-7-sulfonamide] | < 100 nM |
| < 100 nM | N#CC1(NS(=O)(=O)c2ccc3c4c(N5C[C@@H]6C[C@H]5CO6)ncnc4n(-c4nnc(C(F)F)s4)c3c2)CC1 [Example 177, 4-((1S,4S)-2-oxa-5-azabicyclo[2.2.1]heptan-5-yl)-N-(1-cyanocyclopropyl)-9-(5-(difluoromethyl)-1,3,4-thiadiazol-2-yl)-9H-pyrimido[4,5-b]indole-7-sulfonamide] | < 100 nM |
| < 100 nM | C[C@H]1CN(c2ncnc3c2c2ccc(S(=O)(=O)NC4(C#N)CC4)cc2n3-c2nnc(C(F)F)s2)CCN1C [Example 98, (S)—N-(1-Cyanocyclopropyl)-9-(5-(difluoromethyl)-1,3,4-thiadiazol-2-yl)-4-(3,4-dimethylpiperazin-1-yl)-9H-pyrimido[4,5-b]indole-7-sulfonamide] | < 100 nM |
| < 100 nM | N#CC1(NS(=O)(=O)c2ccc3c4c(N5CCN6C(=O)COC[C@H]6C5)ncnc4n(-c4nnc(C(F)F)s4)c3c2)CC1 [Example 168, (R)—N-(1-Cyanocyclopropyl)-9-(5-(difluoromethyl)-1,3,4-thiadiazol-2-yl)-4-(4-oxohexahydropyrazino[2,1-c][1,4]oxazin-8(1H)-yl)-9H-pyrimido[4,5-b]indole-7-sulfonamide] | < 100 nM |
| < 100 nM | N#CC1(NS(=O)(=O)c2ccc3c4c(C5=CCOCC5)ncnc4n(-c4nnc(C(F)F)s4)c3c2)CC1 [Example 78, N-(1-Cyanocyclopropyl)-9-(5-(difluoromethyl)-1,3,4-thiadiazol-2-yl)-4-(3,6-dihydro-2H-pyran-4-yl)-9H-pyrimido[4,5-b]indole-7-sulfonamide] | 100 to 1000 nM |
| < 100 nM | N#CC1(NS(=O)(=O)c2ccc3c4c(N5C[C@H]6C[C@@H]5CO6)ncnc4n(-c4nnc(C(F)F)s4)c3c2)CC1 [Example 202, 4-((1R,4R)-2-Oxa-5-azabicyclo[2.2.1]heptan-5-yl)-N-(1-cyanocyclopropyl)-9-(5-(difluoromethyl)-1,3,4-thiadiazol-2-yl)-9H-pyrimido[4,5-b]indole-7-sulfonamide] | < 100 nM |

Source: patent US20250388589A1, “TRICYCLIC HETEROCYCLIC DERIVATIVES, COMPOSITIONS AND USES THEREOF” (Danatlas Pharmaceuticals Co., Ltd., priority 2022, published 2025)
